Measured values from patent US20120165310A1, “ETHER DERIVATIVES OF BICYCLIC HETEROARYLS” (NOVARTIS AG, priority 2009, published 2012).
pIC50: −log10 of the molar value.

target: T1, IGF-1R (Homo sapiens, UniProt P08069); assay: Cellular IGF-1R assay: capture ELISA (MSD) of receptor phosphorylation in Hek293 cells; format: cell-based; details: Hek293-IGF1R cells, 1 h pre-incubation, 10 min IGF stimulation, pIGF1R capture ELISA
T1 construct: expressed in transfected cells; host or cells: Hek293 (Hek293-IGF1R)
T1 sequence (P08069 31-1367): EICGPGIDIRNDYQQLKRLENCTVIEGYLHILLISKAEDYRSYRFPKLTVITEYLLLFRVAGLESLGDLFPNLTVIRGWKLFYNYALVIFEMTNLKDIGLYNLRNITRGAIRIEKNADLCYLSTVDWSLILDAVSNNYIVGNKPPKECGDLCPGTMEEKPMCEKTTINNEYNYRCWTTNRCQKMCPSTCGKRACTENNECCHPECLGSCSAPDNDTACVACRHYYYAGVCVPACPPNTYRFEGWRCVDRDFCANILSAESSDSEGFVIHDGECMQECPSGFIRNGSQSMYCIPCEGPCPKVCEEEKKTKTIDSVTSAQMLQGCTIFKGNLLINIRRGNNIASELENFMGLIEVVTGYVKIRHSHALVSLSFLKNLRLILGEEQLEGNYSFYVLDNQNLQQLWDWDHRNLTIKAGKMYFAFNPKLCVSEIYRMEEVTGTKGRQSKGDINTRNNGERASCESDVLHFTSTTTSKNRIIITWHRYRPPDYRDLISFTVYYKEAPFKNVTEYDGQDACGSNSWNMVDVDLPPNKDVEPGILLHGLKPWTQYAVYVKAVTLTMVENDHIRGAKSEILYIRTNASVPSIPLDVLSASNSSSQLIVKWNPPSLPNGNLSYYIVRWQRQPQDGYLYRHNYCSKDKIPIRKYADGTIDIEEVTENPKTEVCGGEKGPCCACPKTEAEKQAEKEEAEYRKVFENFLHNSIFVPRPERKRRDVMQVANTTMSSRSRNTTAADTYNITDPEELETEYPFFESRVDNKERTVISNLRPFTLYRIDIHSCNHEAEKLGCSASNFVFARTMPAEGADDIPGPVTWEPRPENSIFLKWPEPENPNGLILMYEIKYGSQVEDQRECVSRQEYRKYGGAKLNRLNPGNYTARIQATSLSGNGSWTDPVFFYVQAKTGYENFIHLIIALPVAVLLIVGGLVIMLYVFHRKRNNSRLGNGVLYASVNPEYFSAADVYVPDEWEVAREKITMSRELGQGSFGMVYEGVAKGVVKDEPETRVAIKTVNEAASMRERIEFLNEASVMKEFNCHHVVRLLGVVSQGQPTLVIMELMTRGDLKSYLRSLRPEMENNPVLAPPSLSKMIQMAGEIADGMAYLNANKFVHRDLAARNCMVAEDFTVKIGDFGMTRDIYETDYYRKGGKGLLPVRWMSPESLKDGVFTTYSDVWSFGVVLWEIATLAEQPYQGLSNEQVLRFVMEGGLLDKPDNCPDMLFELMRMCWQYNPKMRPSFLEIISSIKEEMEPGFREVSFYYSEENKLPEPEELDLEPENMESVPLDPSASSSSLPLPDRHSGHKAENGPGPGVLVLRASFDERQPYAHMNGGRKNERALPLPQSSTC
Description: (§1) In this assay the activity of the compounds of the invention against Insulin-like growth factor I (IGF-I) induced autophosphorylation of the IGF-IR was determined. The assay was conducted as follows: Compound-mediated inhibition of IGF1R and INSR phosphorylation in Hek293 cells transduced with the corresponding receptors was assessed in a capture ELISA format using the MSD (Meso Scale Discovery) platform. Briefly, 30,000 cells washed and diluted in starvation medium (DMEM high glucose supplemented with 0.1% BSA) were seeded in 90 μL per well into 96-well plates pre-coated with poly-D-lysine (0.1 mg/mL in PBS/O). After 24 h incubation at 37° C. and 5% CO2, dose-response effects were determined with 3-fold serial compound dilutions, starting at 10 μM. The final vehicle concentration is 0.1% DMSO in all wells. Following pre-incubation with compounds for 1 h, receptor phosphorylation was triggered by a 10 min exposure to 1.0 ng/μL IGF for Hek293-IGF1R cells, and 5.0 ng/μL insulin for Hek293-InsR cells. Cell lysis was achieved by addition of 80 μL MSD lysis buffer per aspirated well, incubation on ice for 20 min, and a freeze-thaw cycle. Target phosphorylation was then assessed by transferring volumes corresponding to approx. 6 μg Hek293-IGF1R or 0.6 μg Hek293-InsR lysates to MSD assay plates pre-coated with total-IGF1R or total-InsR Abs, respectively. […] Immune complexes were detected by a SULFO-Tag™-coupled anti-rabbit IgG antibody in the presence of 150 μL MSD read-buffer. Light emission at 620 nm triggered by application of electric current was recorded on a MSD Sectorlmager 6000. Acquired raw data (mean Ru-ECL units) were processed in an Excel analysis template. The plate blank (MSD lysis buffer) was subtracted from all data points. The effect of a particular test compound concentration on receptor phosphorylation was expressed relative to the window defined by ligand-stimulated vs unstimulated control cells (set as 100%). IC50 values [nM] were determined using 4-parametric curve-fitting (XLfit software, V4.3.2).
as §1, with “Compound-mediated” for “In this assay the activity of the compounds of the invention against Insulin-like growth factor I (IGF-I) induced autophosphorylation of the IGF-IR was determined. The assay was conducted as follows: Compound-mediated”, “cells trans-duced” for “cells transduced”, “receptors were” for “receptors was”, “concentration was” for “concentration is”, “for Hek293-IGF1 R” for “for Hek293-IGF1R”, “with total-IGF1 R” for “with total-IGF1R”

| Compound | pIC50 |
| --- | --- |
| CSC[C@H]1C[C@@H](n2cc(-c3cccc(OCC4CCCCO4)c3)c3c(N)ncnc32)C1 (relative stereo) [Example 85, 7-(cis-3-methylsulfanylmethyl-cyclobutyl)-5-[3-(tetrahydro-pyran-2-ylmethoxy)-phenyl]-7H-pyrrolo[2,3-d]pyrimidin-4-ylamine] | 6.25 |
| CC1(C)CCC(COc2cccc(-c3cn([C@H]4C[C@@H](CN5CCC(F)(F)CC5)C4)c4ncnc(N)c34)c2)O1 (relative stereo) [Example 53, 7-[cis-3-(4,4-difluoro-piperidin-1-ylmethyl)-cyclobutyl]-5-[3-(5,5-dimethyl-tetrahydro-furan-2-ylmethoxy)-phenyl]-7H-pyrrolo[2,3-d]pyrimidin-4-ylamine] | 7.43 to 7.49 |
| Nc1ncnc2c1c(-c1cccc(OCC34CCC(CC3)O4)c1)cn2C1CC(CN2CC3CC2C[S+]3[O-])C1 (single isomer, unassigned) [Example 228] | 7.82 to 8.00 |
| Nc1ncnc2c1c(-c1cccc(OCC34CCC(CC3)O4)c1)cn2[C@H]1CC[C@@H](NC(=O)C2CCOCC2)CC1 [Example 141, N-((1S,4S)-4-(5-(3-(7-oxabicyclo[2.2.1]heptan-1-ylmethoxy)phenyl)-4-amino-7H-pyrrolo[2,3-d]pyrimidin-7-yl)cyclohexyl)tetrahydro-2H-pyran-4-carboxamide] | 7.68 |
| Nc1ncnc2c1c(-c1cccc(OCC34CCC(CC3)O4)c1)cn2[C@H]1C[C@H](N2CC3CC2CN3CCO)C1 (stereo partly drawn) [Example 175, 2-[(trans-3-{4-amino-5[3-(7-oxa-bicyclo[2.2.1]hept-1-ylmethoxy)-phenyl]-pyrrolo[2,3-d]pyrimidin-7-yl}-cyclobutyl)-2,5-diaza-bicyclo[2.2.1]hept-2-yl]-ethanol] | 6.36 |
| NC(=O)[C@@H]1CCCN1[C@H]1C[C@@H](n2cc(-c3cccc(OCC45CCC(CC4)O5)c3)c3c(N)ncnc32)C1 [Example 189, (S)-1-(cis-3-{4-Amino-5-[3-(7-oxa-bicyclo[2.2.1]hept-1-ylmethoxy)-phenyl]-pyrrolo[2,3-d]pyrimidin-7-yl}-cyclobutyl)-pyrrolidine-2-carboxylic acid amide] | 6.88 |
| Nc1ncnc2c1c(-c1cccc(OCC34CCC(CC3)O4)c1)cn2[C@H]1CC[C@@H](NC(=O)C2CCC2)CC1 [Example 142, N-((1S,4S)-4-(5-(3-(7-oxabicyclo[2.2.1]heptan-1-ylmethoxy)phenyl)-4-amino-7H-pyrrolo[2,3-d]pyrimidin-7-yl)cyclohexyl)cyclobutanecarboxamide] | 7.27 |
| Nc1ncnc2c1c(-c1cccc(OCC34CCC(CC3)O4)c1)cn2[C@H]1C[C@@]2(CNC(=O)CO2)C1 [Example 220, (E)-2-{4-amino-5-[3-(7-oxa-bicyclo[2.2.1]hept-1-ylmethoxy)-phenyl]-pyrrolo[2,3-d]pyrimidin-7-yl}-5-oxa-8-aza-spiro[3.5]nonan-7-one] | 6.44 |
| Nc1ncnc2c1c(-c1cccc(OCC34CCC(CC3)O4)c1)cn2[C@@H]1CCN(C2CCS(=O)(=O)CC2)C1 [Example 215, 7-[(R)-1-(1,1-dioxo-hexahydro-thiopyran-4-yl)-pyrrolidin-3-yl]-5-[3-(7-oxa-bicyclo[2.2.1]hept-1-ylmethoxy)-phenyl]-7H-pyrrolo[2,3-d]pyrimidin-4-ylamine] | 6.48 |
| Nc1ncnc2c1c(-c1cccc(OCC34CCC(CC3)O4)c1)cn2[C@H]1C[C@@H](CN2CC[C@@H](O)C2)C1 [Example 214, (R)-1-(cis-3-{4-Amino-5-[3-(7-oxa-bicyclo[2.2.1]hept-1-ylmethoxy)-phenyl]-pyrrolo[2,3-d]pyrimidin-7-yl}-cyclobutylmethyl)-pyrrolidin-3-ol] | 7.74 |
| CS(=O)(=O)NCC1CC(n2cc(-c3cccc(OCC45CCC(CC4)O5)c3)c3c(N)ncnc32)C1 (centres unmarked) [Example 167, N-(3-{4-amino-5-[3-(7-oxa-bicyclo[2.2.1]hept-1-ylmethoxy)-phenyl]-pyrrolo[2,3-d]pyrimidin-7-yl}-cyclobutylmethyl)-methanesulfonamide] | 6.78 |
| Nc1ncnc2c1c(-c1cccc(OCC34CCC(CC3)O4)c1)cn2[C@H]1CC[C@@H](CO)CC1 [Example 110, ((1S,4S)-4-(5-(3-(7-oxabicyclo[2.2.1]heptan-1-ylmethoxy)phenyl)-4-amino-7H-pyrrolo[2,3-d]pyrimidin-7-yl)-cyclohexyl)methanol] | 6.23 |
| Nc1ncnc2c1c(-c1cccc(OC[C@@H]3CCCO3)c1)cn2[C@H]1C[C@@H](CN2CCC(F)(F)CC2)C1 [Example 16, cis-7-[3-(4,4-Difluoro-piperidin-1-ylmethyl)-cyclobutyl]-5-{3-[(S)-1-(tetrahydrofuran-2-yl)methoxy]-phenyl}-7H-pyrrolo[2,3-d]pyrimidin-4-ylamine] | 6.66 to 7.05 |
| CC1(C(N)=O)CCCN1CC1CC(n2cc(-c3cccc(OCC4CCCCO4)c3)c3c(N)ncnc32)C1 [Example 93, (2S)-1-(((1s,3R)-3-(4-amino-5-(3-((tetrahydro-2H-pyran-2-yl)methoxy)phenyl)-7H-pyrrolo[2,3-d]pyrimidin-7-yl)cyclobutyl)methyl)-2-methylpyrrolidine-2-carboxamide] | 7.59 |
| NC(=O)[C@@H]1CCCN1C[C@]1(O)C[C@@H](n2cc(-c3cccc(OCC45CCC(CC4)O5)c3)c3c(N)ncnc32)C1 [Example 198, (S)-(Z)-1-(3-(4-Amino-5-[3-(7-oxa-bicyclo[2.2.1]hept-1-ylmethoxy)-phenyl]-pyrrolo[2,3-d]pyrimidin-7-yl}-1-hydroxy-cyclobutylmethyl)-pyrrolidine-2-carboxylic acid amide] | 7.48 |
| Nc1ncnc2c1c(-c1cccc(OCC34CCC(CC3)O4)c1)cn2C1CCC(CN2CCS(=O)(=O)CC2)CC1 (centres unmarked) [Example 111, 7-[4-(1,1-Dioxo-thiomorpholin-4-ylmethyl)-cyclohexyl]-5-[3-(7-oxa-bicyclo[2.2.1]hept-1-ylmethoxy)-phenyl]-7H-pyrrolo[2,3-d]pyrimidin-4-ylamine] | 7.01 |
| CC1(C)CCC(COc2cccc(-c3cn([C@H]4C[C@@H](CN5CC[C@@H](F)C5)C4)c4ncnc(N)c34)c2)O1 (relative stereo) [Example 52, 5-[cis-3-(5,5-dimethyl-tetrahydro-furan-2-ylmethoxy)-phenyl]-7-[3-((R)-3-fluoro-pyrrolidin-1-ylmethyl)cyclobutyl]-7H-pyrrolo[2,3-d]pyrimidin-4-ylamine] | 7.43 |
| NC(=O)[C@H]1CCCN1C[C@H]1C[C@@H](n2cc(-c3cccc(OCC4CCCCO4)c3)c3c(N)ncnc32)C1 (stereo partly drawn) [Example 29, (R)-1-(cis-3-{4-amino-5-[3-(tetrahydro-pyran-2-ylmethoxy)-phenyl]-pyrrolo[2,3-d]pyrimidin-7-yl}-cyclobutylmethyl)-pyrrolidine-2-carboxylic acid amide] | 6.82 to 6.83 |
| NC(=O)[C@@H]1CCCN1C[C@H]1C[C@@H](n2cc(-c3cccc(OC[C@@H]4CCCCO4)c3)c3c(N)ncnc32)C1 [Example 44, (S)-1-[3-(4-amino-5-{3-[(S)-1-(tetrahydro-pyran-2-yl)methoxy]-phenyl}-pyrrolo[2,3-d]pyrimidin-7-yl)-cyclobutylmethyl]-pyrrolidine-2-carboxylic acid amide] | 7.82 to 8.15 |
| [2H]C([2H])([2H])C(=O)NC[C@H]1C[C@@H](n2cc(-c3cccc(OCC45CCC(CC4)O5)c3)c3c(N)ncnc32)C1 [Example 165, d3-N-(3-{4-amino-5-[3-(7-oxa-bicyclo[2.2.1]hept-1-ylmethoxy)-phenyl]-pyrrolo[2,3-d]pyrimidin-7-yl}-cyclobutylmethyl)-acetamide] | 7.28 |
